Our source for the Cmax and EC50 values is patent publication US10654834B2 (Venenum Biodesign, LLC, priority 2016, dated 2020).

Series [1] is described as follows: Pharmacokinetic profile in mice after oral gavage. To be noted: mouse; fasted male Hilltop mice, 10 mg/kg oral gavage, plasma; read-out: Cmax. In kind it is in vivo, mouse. How it is done:
Pharmacokinetic Profile in Mice
In this series of studies, the pharmacokinetic profile characteristics of compounds of the present invention were evaluated. The plasma concentration levels of the compounds were monitored in the blood stream (i.e., plasma) after oral gavage using Cmax, and area under the curve (AUC).
8 week old male Hilltop mice were fasted overnight. Animals were randomized into groups (n=9) by body weight. Mice were dosed with 10 mg/kg compound (in 20% PEG400/80% 0.5% carboxymethylcellulose (medium viscosity)+0.25% Tween-80) at a volume of […] through oral gavage. Blood was collected via orbital bleeding at 0, 0.25, 0.5, 1, 2, and 4 h post-dose, with no one mouse having more than 3 blood draws. Blood was collected in EDTA coated tubes. Samples were stored at −20° C. until analysis.
Quantitation of compound levels in plasma was accomplished by LC-MS/MS analysis. Standard curve and quality control samples were prepared in male CD-1 mouse plasma containing EDTA K^2+ as an anticoagulant at final concentrations ranging from 500 to 0.1 ng/mL. The plasma samples, calibration curve standards, and quality control samples were prepared in an identical method in a 96-well deep plate (1 mL) with a quenching solution (1:1 mixed acetonitrile:methanol containing the internal standard Reserpine @ 400 ng/mL). Low volume samples were supplemented with CD-1 mouse plasma. The plate was mixed on multi-tube vortexer for 1 min and centrifuged at 4000 rpm for 30 min at 4° C. (Sorvall® Super T21) before LC-MS/MS analysis. LC conditions were developed and optimized based on each compound as needed. The outlet of the column was coupled to AB Sciex 4000 QTrap Mass Spectrometer (AB Sciex, Brugg Switzerland). Detection was carried out using multiple reaction monitoring mode with positive-ion detection focusing. The pharmacokinetic parameters were derived from the plasma-time data and calculated using the standard non-compartmental method with WinNonlin (Pharsight, Mountain View, Calif.) or PK Solver (Comp. Meth. Prog. Biomed. (2010), 99, 306-314).
Values reported are the mean plasma concentration of three mice. […]

Series [2] addresses T1, mouse TGR5 receptor (Mus musculus, UniProt Q80SS6).
T1 construct: host or cells: HEK293-EBNA (293 c18, ATCC CRL10852)
T1 sequence (Q80SS6 1-329): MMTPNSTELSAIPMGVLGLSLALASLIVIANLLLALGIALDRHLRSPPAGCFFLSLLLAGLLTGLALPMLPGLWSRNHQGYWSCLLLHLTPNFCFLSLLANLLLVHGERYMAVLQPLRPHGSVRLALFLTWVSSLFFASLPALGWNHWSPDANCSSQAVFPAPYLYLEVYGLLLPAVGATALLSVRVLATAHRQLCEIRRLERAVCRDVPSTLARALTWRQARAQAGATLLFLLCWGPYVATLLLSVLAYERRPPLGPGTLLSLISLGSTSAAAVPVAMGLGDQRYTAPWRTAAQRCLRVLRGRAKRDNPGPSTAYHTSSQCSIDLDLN
Kind of series: Mouse TGR5 HTRF cAMP production assay (HEK293-EBNA cells, Cisbio cAMP HiRange kit). The series is classed as cell-based. To be noted: HEK293-EBNA cells overexpressing mouse TGR5, HTRF cAMP assay. The essentials:
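HEK293-EBNA cells stably expressing mouse TGR5 (episomal vector) were suspended in serum-free DMEM with 500 μM IBMX and exposed to 12-point half-log compound dilutions for 1 h at room temperature. cAMP was detected by HTRF (d2-cAMP/anti-cAMP cryptate, 1 h, room temperature), giving EC50 from duplicates.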
Background: TR-FRET usually uses a lanthanide donor and a delayed reading to cut background.

The target in series [3] is T2, human TGR5 receptor (Homo sapiens, UniProt Q8TDU6).
T2 construct: host or cells: CHO-K1 (hTGR5-CHO)
T2 sequence (Q8TDU6 1-330): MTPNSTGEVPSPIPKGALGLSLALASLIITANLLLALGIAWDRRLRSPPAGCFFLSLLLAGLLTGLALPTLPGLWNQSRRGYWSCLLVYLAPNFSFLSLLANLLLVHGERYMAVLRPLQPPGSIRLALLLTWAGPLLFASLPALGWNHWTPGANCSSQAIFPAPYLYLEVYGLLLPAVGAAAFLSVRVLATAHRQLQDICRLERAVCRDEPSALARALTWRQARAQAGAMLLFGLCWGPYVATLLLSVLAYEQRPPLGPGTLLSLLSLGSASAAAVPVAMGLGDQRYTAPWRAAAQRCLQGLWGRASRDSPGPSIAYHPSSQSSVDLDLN
Kind of series: Human TGR5 cAMP production assay (hTGR5-CHO cells, DiscoveRx cAMP XS+ kit). In kind it is cell-based. To be noted: luminescent cAMP assay, read-out: Human TGR5 Lum. cAMP Activity (EC50). The method, boiled down:
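CHO-K1 cells stably expressing hTGR5, in PBS with IBMX and cAMP antibody, treated with half-log compound dilutions for 1 h at room temperature. cAMP measured by enzyme-fragment complementation luminescence after overnight detection; EC50 values reported.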

SMILES strings stand for the structures.

Broadly, the Cmax is the peak of the concentration-time curve. What is called EC50 is the concentration needed to bring the measured effect to its halfway point. As for `O=C(CCCC1CCN(c2cc(N3CC[C@H]3C(=O)NCCc3ccc(C(F)(F)F)cc3)nc(C(F)(F)F)n2)CC1)NCS(=O)(=O)O` [Compound 255, (S)-(4-(1-(2-(trifluoromethyl)-6-(2-((4-(trifluoromethyl)phenethyl)carbamoyl)azetidin-1-yl)pyrimidin-4-yl)piperidin-4-yl)butanamido)methanesulfonic acid], the Cmax in series [1] was 64 ng/mL. Moreover, the EC50 in series [2] and in series [3] was under 100 nM in each case.

On to `O=C(NCCCC1CCN(c2cc(N3CCC[C@H]3C(=O)NCCc3ccc(C(F)(F)F)cc3)nc(C(F)(F)F)n2)CC1)NCCS(=O)(=O)O` [Compound 87, (S)-2-(3-(3-(1-(2-(trifluoromethyl)-6-(2-((4-(trifluoromethyl)phenethyl)-carbamoyl)-pyrrolidin-1-yl)pyrimidin-4-yl)piperidin-4-yl)propyl)ureido)-ethanesulfonic acid], for which, in series [1], the highest concentration (Cmax) worked out at 35 ng/mL. Also, the EC50 in series [2] and in series [3] was under 100 nM each time.

`N#Cc1ccc(CCNC(=O)[C@@H]2CCCN2c2cc(N3CCC(COCC(=O)NCCS(=O)(=O)O)CC3)nc(C(F)(F)F)n2)cc1` [Compound 89, (S)-2-(2-((1-(6-(2-((4-cyanophenethyl)carbamoyl)pyrrolidin-1-yl)-2-(trifluoromethyl)pyrimidin-4-yl)piperidin-4-yl)methoxy)acetamido)-ethanesulfonic acid]: the peak concentration (Cmax) in series [1] turned out to be 2.1 ng/mL. The EC50 in series [2] and in series [3] was under 100 nM in each case.

With `N#Cc1ccc(CCNC(=O)[C@@H]2CCCN2c2cc(N3CCC(CCCC(=O)N[C@H](CCCNC(=N)N)C(=O)O)CC3)nc(C(F)(F)F)n2)cc1` [Compound 73, (R)-2-(4-(1-(6-((S)-2-((4-cyanophenethyl)carbamoyl)pyrrolidin-1-yl)-2-(trifluoromethyl)pyrimidin-4-yl)piperidin-4-yl)butanamido)-5-guanidinopentanoic acid], the Cmax in series [1] is 2.8 ng/mL. Besides, the half-maximal effective concentration (EC50) in series [2] and in series [3] was under 100 nM throughout.

For `N#Cc1ccc(CCNC(=O)[C@@H]2CCCN2c2cc(N3CCC(CCNC(=O)NCCOCCOCCOCCC(=O)O)CC3)nc(C(F)(F)F)n2)cc1` [Compound 364, (S)-1-(1-(6-(2-((4-cyanophenethyl)carbamoyl)pyrrolidin-1-yl)-2-(trifluoromethyl)pyrimidin-4-yl)piperidin-4-yl)-4-oxo-8,11,14-trioxa-3,5-diazaheptadecan-17-oic acid], the Cmax in series [1] came to 8 ng/mL. In addition, the concentration for a half-maximal effect (EC50) in series [2] and in series [3] was under 100 nM in each case.

Consider `N#Cc1ccc(CCNC(=O)[C@@H]2CCCN2c2cc(N3CCC(CCCC(=O)NCCNc4ncc(C(=O)O)cn4)CC3)nc(C(F)(F)F)n2)cc1` [Compound 98, (S)-2-((2-(4-(1-(6-(2-((4-cyanophenethyl)carbamoyl)pyrrolidin-1-yl)-2-(trifluoromethyl)pyrimidin-4-yl)piperidin-4-yl)butanamido)ethyl)-amino)pyrimidine-5-carboxylic acid], for which, in series [1], the peak concentration (Cmax) turned out to be 12 ng/mL. In addition, the half-maximal effective concentration (EC50) in series [2] and in series [3] was under 100 nM throughout.

Regarding `O=C(O)CCNC(=O)N1CCN(c2cc(N3CCC[C@@H](C(=O)NCCc4ccc(C(F)(F)F)cc4)C3)nc(C(F)(F)F)n2)CC1` [Compound 344, (R)-3-(4-(2-(trifluoromethyl)-6-(3-((4-(trifluoromethyl)phenethyl)carbamoyl)-piperidin-1-yl)pyrimidin-4-yl)piperazine-1-carboxamido)propanoic acid], the concentration giving a half-maximal response (EC50) in series [2] was under 100 nM; in series [3], 100 to 999 nM.

`N#Cc1ccc(CCNC(=O)[C@@H]2CCCN2c2cc(N3CCC(CCNc4c(NCCS(=O)(=O)NCC(=O)O)c(=O)c4=O)CC3)nc(C(F)(F)F)n2)cc1` [Compound 370, (S)-2-(2-((2-((2-(1-(6-(2-((4-cyanophenethyl)carbamoyl)pyrrolidin-1-yl)-2-(trifluoromethyl)pyrimidin-4-yl)piperidin-4-yl)ethyl)amino)-3,4-dioxocyclobut-1-en-1-yl)amino)ethylsulfonamido)acetic acid]: the EC50 in series [2] and in series [3] was under 100 nM throughout.
